Results taken from patent US7947869B2, “Methods for inducing cotton embryogenic callus” (Monsanto Technology LLC, priority 2007, dated 2011).

Assays:
Format in all cases: cell-based, cotton (cv. Coker 130)
[1] = system: cotton hypocotyl explants; experiment: Effect of ACC during callus induction or embryogenic callus induction step
Experimental: An ethylene precursor, 1-aminocyclopropane-1-carboxylic acid (ACC) was added at the step of undifferentiated callus formation, and removed prior to embryogenesis, to speed up embryogenic callus formation.
Three studies were performed to define the effect of ACC on enhancing embryogenic callus formation. In the first experiment summarized in Table 19, hypocotyl explants were placed on UMSEL medium containing different concentrations of ACC (Treatments 2-6), or containing no ACC (treatment 7). The plates were unwrapped and placed in two separate boxes (Treatments 2-6 in one box and Treatments 7-12 in another), and cultured at 28° C. with a photoperiod of 16 hr light/8 hr darkness. After four weeks of callus induction, the calli were transferred to UMO medium without ACC (Treatments 2-6), or to UMO plus different concentrations of ACC (Treatments 8-12) for embryogenic callus induction. The plates were wrapped with PARAFILM at this stage.

[2] = system: Agrobacterium-inoculated cotton hypocotyl explants; experiment: Effect of ACC on embryogenic callus from transformed tissue (pMON15722, kanamycin selection)
Experimental: Addition of ACC produced a similar enhancing effect on producing embryogenic callus from transformed tissue. The hypocotyl explants were inoculated with Agrobacterium containing a plant transformation vector pMON15722 having an expression unit conferring kanamycin tolerance. The explants were pre-soaked in 2-hr in MSO glucose medium (Table 3) before inoculation. After 2 days of co-culture at about 24° C., the inoculated hypocotyl pieces were placed on WPSEL medium containing 45 mg/L of kanamycin for 4 weeks for callus induction. After callus induction, the explants were again transferred to WPSEL medium for another 4 weeks. Different concentrations of ACC were incorporated in the medium at this step.

[3] = system: embryogenic cotton callus; experiment: Effect of brassinolide on embryo production at 9% and 21% O2 levels
Experimental: When embryogenic callus was placed on brassinolide containing TRP+ medium (Table 9) at either 9% or 21% O2, more embryos were produced in the brassinolide treatments at 9% than at 21% O2. Lower level of 10 μM brassinolide gave the greatest response at 9% O2 but 100 μM level of brassinolide was more useful in 21% O2. […] Different levels of O2 were created by using a PRO-OX 110 oxygen control according to manufacturer's instructions (BioSpherix, Redfield, N.Y.) in a growth chamber (e.g. Percival Scientific, Inc., Perry, Iowa). Results in Table 12 indicate that brassinolide promotes the growth and development of embryos from cotton embryogenic callus.

[4] = system: embryogenic cotton callus; experiment: Effect of brassinolide in TRP+ medium on production of embryos from embryogenic cotton callus
Experimental: A brassinosteroid plant growth regulator was used to enhance cotton embryo formation. Brassinolide (i.e. 24-epibrassinolide; Super-Grow, Montreal, Calif.), at a concentration from 2 to 100 μM was added to TRP+ medium (Table 9). Embryogenic callus from the UMO medium (Table 8) was then cultured on TRP+ medium containing Brassinolide. […] Besides an increase in the overall production of embryos, many of the embryos produced from the brassinolide treatment were 5-6 mm long heart shaped embryos (more developed), whereas there were none at this stage in the control treatment. […]

[5] = ACC 0.01 mM at callus induction step (UMSEL), removed on UMO
[6] = ACC 0.1 mM at callus induction step (UMSEL)
[7] = ACC 0.5 mM at callus induction step (UMSEL)
[8] = ACC 1 mM at callus induction step (UMSEL)
[9] = ACC 5 mM at callus induction step (UMSEL)
[10] = 2 μM brassinolide in TRP+ medium
[11] = 5 μM brassinolide in TRP+ medium
[12] = 10 μM brassinolide in TRP+ medium
[13] = 15 μM brassinolide in TRP+ medium

Question: How did the “% EC at 7 week” value [1, 5] turn out when `NC1(C(=O)O)CC1` [ACC, 1-aminocyclopropane-1-carboxylic acid] was run?
Answer: Its value is 80%.

Question: And the “% EC at 9 week” value [1, 5]?
Answer: The value was 94%.

Question: What about the “% EC at 9 week” value ([1]; ACC 0.01 mM at embryogenic callus induction step (UMO)) of the same compound?
Answer: The value was 35%.

Question: What about the “% EC at 7 week” value [1, 6] of the same compound?
Answer: The value was 50%.

Question: And the “% EC at 9 week” value [1, 6]?
Answer: Its value is 90%.

Question: And the “% EC at 9 week” value ([1]; ACC 0.1 mM at embryogenic callus induction step (UMO))?
Answer: The value was 5%.

Question: What about the “% EC at 7 week” value [1, 7] of the same compound?
Answer: Its value is 58%.

Question: And the “% EC at 9 week” value [1, 7]?
Answer: The value was 88%.

Question: What about the “% EC at 9 week” value ([1]; ACC 0.5 mM at embryogenic callus induction step (UMO)) of the same compound?
Answer: Its value is 10%.

Question: What about the “% EC at 7 week” value [1, 8] of the same compound?
Answer: Its value is 28%.

Question: And the “% EC at 9 week” value [1, 8]?
Answer: The value was 62%.

Question: And the “% EC at 9 week” value ([1]; ACC 1 mM at embryogenic callus induction step (UMO))?
Answer: The value was 10%.

Question: And the “% EC at 9 week” value ([1]; ACC 3 mM at embryogenic callus induction step (UMO))?
Answer: Its value is 0%.

Question: And the “% EC at 7 week” value [1, 9]?
Answer: The value was 0%.

Question: What about the “% EC at 9 week” value [1, 9] of the same compound?
Answer: The value was 0%.

Question: And the “% Pieces w/ EC after 6 weeks on UMO medium with Kanamycin” value (shortened to “% Pieces w/ EC after 6 weeks”) ([2]; ACC 10 μM during non-embryogenic callus growth on WPSEL)?
Answer: Its value is 18.4%.

Question: And the “% Pieces w/ EC after 6 weeks” value ([2]; ACC 30 μM during non-embryogenic callus growth on WPSEL)?
Answer: Its value is 22.1%.

Question: What about the “% Pieces w/ EC after 6 weeks” value ([2]; ACC 60 μM during non-embryogenic callus growth on WPSEL) of the same compound?
Answer: Its value is 21.6%.

Question: And the “% Pieces w/ EC after 6 weeks” value ([2]; ACC 100 μM during non-embryogenic callus growth on WPSEL)?
Answer: The value was 26.5%.

Question: And the “% Pieces w/ EC after 6 weeks” value ([2]; ACC 150 μM during non-embryogenic callus growth on WPSEL)?
Answer: Its value is 44.0%.

Question: What does the source list for `CC(C)[C@@H](C)[C@@H](O)[C@H](O)[C@@H](C)[C@H]1CC[C@H]2[C@@H]3COC(=O)[C@H]4C[C@H](O)[C@H](O)C[C@]4(C)[C@H]3CC[C@]12C` [Brassinolide, 24-epibrassinolide]?
Answer: Number of Embryos Produced ([3]; 10 μM brassinolide, 9% O2, 4 weeks): 18; Number of Embryos Produced ([3]; 10 μM brassinolide, 9% O2, 7 weeks): 30; Number of Embryos Produced ([3]; 10 μM brassinolide, 9% O2, 9 weeks): 48; Number of Embryos Produced ([3]; 10 μM brassinolide, 21% O2, 4 weeks): 21; Number of Embryos Produced ([3]; 10 μM brassinolide, 21% O2, 7 weeks): 28; Number of Embryos Produced ([3]; 10 μM brassinolide, 21% O2, 9 weeks): 21; Number of Embryos Produced ([3]; 50 μM brassinolide, 9% O2, 4 weeks): 8; Number of Embryos Produced ([3]; 50 μM brassinolide, 9% O2, 7 weeks): 12; Number of Embryos Produced ([3]; 50 μM brassinolide, 9% O2, 9 weeks): 35; Number of Embryos Produced ([3]; 50 μM brassinolide, 21% O2, 4 weeks): 10; Number of Embryos Produced ([3]; 50 μM brassinolide, 21% O2, 7 weeks): 8; Number of Embryos Produced ([3]; 50 μM brassinolide, 21% O2, 9 weeks): 11; Number of Embryos Produced ([3]; 100 μM brassinolide, 9% O2, 4 weeks): 1; Number of Embryos Produced ([3]; 100 μM brassinolide, 9% O2, 7 weeks): 9; Number of Embryos Produced ([3]; 100 μM brassinolide, 9% O2, 9 weeks): 21; Number of Embryos Produced ([3]; 100 μM brassinolide, 21% O2, 4 weeks): 6; Number of Embryos Produced ([3]; 100 μM brassinolide, 21% O2, 7 weeks): 9; Number of Embryos Produced ([3]; 100 μM brassinolide, 21% O2, 9 weeks): 33; Brassinolide level giving the greatest response ([3]; 9% O2): 10 µM; Brassinolide level more useful ([3]; 21% O2): 100 µM; Embryo stages: 2-3 mm globules [4, 10]: 3; Embryo stages: 5-6 mm heart shaped [4, 10]: 0; Total embryos [4, 10]: 3; Embryo stages: 2-3 mm globules [4, 11]: 10; Embryo stages: 5-6 mm heart shaped [4, 11]: 8; Total embryos [4, 11]: 18; Embryo stages: 2-3 mm globules [4, 12]: 6; Embryo stages: 5-6 mm heart shaped [4, 12]: 11; Total embryos [4, 12]: 17; Embryo stages: 2-3 mm globules [4, 13]: 6; Embryo stages: 5-6 mm heart shaped [4, 13]: 9; Total embryos [4, 13]: 15
